Data: patent US20250136722A1, “CYTOTOXICITY TARGETING CHIMERAS” (GLAXOSMITHKLINE INTELLECTUAL PROPERTY DEVELOPMENT LIMITED, priority 2021, published 2025)

Target: T1, CHOK1 cells engineered to overexpress human CCR2 (Homo sapiens, UniProt P41597)
T1 construct: expressed in transfected cells; host or cells: CHOK1 cells
Experiment: Antibody dependent cellular cytotoxicity (ADCC) reporter assay (Example 199)
Assay type: cell-based
Settings: with anti-cotinine antibody SEQ ID NO: 11/12; CHOK1-human CCR2 target cells, Jurkat FcγRIIIa NFAT-luciferase reporter cells; 12-18 hours; read-out: ADCC Reporter Assay pEC50 (converted)
Method: An antibody dependent cellular cytoxicity reporter assay was conducted using the following four assay components: (i) ARM compound of Formula (I) targeting CCR2 (concentrations ranging from 1 pM to 10 μM) (ii) anti-cotinine antibody having a heavy chain sequence of SEQ ID NO: 11 and a light chain sequence of SEQ ID NO: 12 (rabbit variable region with human IgG1 Fc domain containing a DE mutation (S239D/1332E)) (concentrations ranging from 0.01 μg/mL to 200 μg/mL); (iii) target cells: CHOK1 cells engineered to overexpress either human CCR2 (typically 1000-20,000 cells per well) and (iv) reporter cells: Jurkat cells engineered to express FcγRIIIa with the reporter gene luciferase under the control of the NFAT promoter (typically 3000-75,000 cells per well). Reagents were combined in a final volume of 20 μL in a 384-well tissue culture treated plate. All four assay components were incubated together for about 12-18 hours. Thereafter, BioGlo Detection reagent (Promega) was added to the wells to lyse the cells and provide a substrate for the luciferase reporter protein. Luminescence signal was measured on a microplate reader and signal:background was calculated by dividing the signal of a test well by the signal obtained when no heterobivalent compound of Formula (I) was added. EC50 calculations were done using Graphpad Prism Software, specifically a nonlinear regression curve fit (Y=Bottom+(Top−Bottom)/(1+10^((Log EC50−X)*HillSlope))).
ARMs compounds of Formula (I) of the invention were tested for ADCC activity in the above assay in or more experimental runs and the results are shown in Table 3 below. Potency of the compounds of Formula (I) of the invention is reported as a pEC50 value. The pEC50 value is the negative log of the EC50 value, wherein the EC50 value is the half maximal effective concentration measured in molar (M). For compounds tested in more than one experimental run, the pEC50 value is reported as an average.

Row | SMILES | EC50
1 | CC(C)N(C)[C@@H]1CC[C@H](N2CC[C@H](Nc3ncnc4ccc(C(F)(F)F)cc34)C2=O)[C@H](NC(=O)C2CCC(N3CCC(S(=O)(=O)NCCCCCCNC(=O)[C@H]4CC(=O)N(C)[C@@H]4c4cccnc4)CC3)CC2)C1 (single isomer, unassigned) [Example 148] | 3.16 nM
2 | CC(C)N(C)[C@@H]1CC[C@H](N2CC[C@H](Nc3ncnc4ccc(C(F)(F)F)cc34)C2=O)[C@H](NC(=O)CCCNC(=O)CCCC(=O)NCCCOCCCNC(=O)[C@@H]2CC(=O)N(C)[C@H]2c2cccnc2)C1 [Example 21] | 0.469 nM
3 | CC(C)N(C)[C@@H]1CC[C@H](N2CC[C@H](Nc3ncnc4ccc(C(F)(F)F)cc34)C2=O)[C@H](NC(=O)C23CCC(NC(=O)CCOCCOCCOCCNC(=O)[C@H]4CC(=O)N(C)[C@@H]4c4cccnc4)(CC2)CC3)C1 [Example 25] | 20 nM
4 | CC(C)N(C)[C@@H]1CC[C@H](N2CC[C@H](Nc3ncnc4ccc(C(F)(F)F)cc34)C2=O)[C@H](NC(=O)C[C@H]2CC[C@H](NC(=O)CCOCCOCCOCCNC(=O)[C@H]3CC(=O)N(C)[C@@H]3c3cccnc3)CC2)C1 [Example 33] | 4.54 nM
5 | CN1C(=O)C[C@H](C(=O)NCCOCCOCCOCCOCCOCCOCCOCCOCCC(=O)N[C@@H]2C[C@H](NC(C)(C)C)CC[C@@H]2N2CC[C@H](Nc3ncnc4ccc(C(F)(F)F)cc34)C2=O)[C@H]1c1cccnc1 [Example 36, (2S,3S)-N-(27-(((1R,2S,5R)-5-(tert-Butylamino)-2-((S)-2-oxo-3-((6-(trifluoromethyl)quinazolin-4-yl)amino)pyrrolidin-1-yl)cyclohexyl)amino)-27-oxo-3,6,9,12,15,18,21,24-octaoxaheptacosyl)-1-methyl-5-oxo-2-(pyridin-3-yl)pyrrolidine-3-carboxamide] | 3.98 nM
6 | CC(C)N(C)[C@@H]1CC[C@H](N2CC[C@H](Nc3ncnc4ccc(C(F)(F)F)cc34)C2=O)[C@H](NC(=O)[C@H]2C[C@H](NC(=O)CCOCCNC(=O)CCOCCNC(=O)[C@@H]3CC(=O)N(C)[C@H]3c3cccnc3)C2)C1 [Example 45] | 3.98 nM
7 | CN1C(=O)C[C@H](C(=O)NCCC(=O)NCCOCCOCCC(=O)N[C@H]2CC[C@@H](C(=O)N[C@@H]3C[C@H](NC(C)(C)C)CC[C@@H]3N3CC[C@H](Nc4ncnc5ccc(C(F)(F)F)cc45)C3=O)CC2)[C@H]1c1cccnc1 [Example 51] | 2 nM
8 | CC(C)N(C)[C@@H]1CC[C@H](N2CC[C@H](Nc3ncnc4ccc(C(F)(F)F)cc34)C2=O)[C@H](NC(=O)CCCOC[C@H]2CC[C@H](COCCNC(=O)[C@H]3CC(=O)N(C)[C@@H]3c3cccnc3)CC2)C1 [Example 58] | 50.1 nM
9 | CC(C)N(C)[C@@H]1CC[C@H](N2CC[C@H](Nc3ncnc4ccc(C(F)(F)F)cc34)C2=O)[C@H](NC(=O)CCCOCC23CCC(COCCNC(=O)[C@H]4CC(=O)N(C)[C@@H]4c4cccnc4)(CC2)CC3)C1 [Example 59] | 251 nM
10 | CC(C)N(C)[C@@H]1CC[C@H](N2CC[C@H](Nc3ncnc4ccc(C(F)(F)F)cc34)C2=O)[C@H](NC2CCC(C(=O)NCCOCCOCCNC(=O)[C@H]3CC(=O)N(C)[C@@H]3c3cccnc3)CC2)C1 (some centres unmarked) [Example 68] | 10 nM
11 | CC(C)N(C)[C@@H]1CC[C@H](N2CC[C@H](Nc3ncnc4ccc(C(F)(F)F)cc34)C2=O)[C@H](NC(=O)COCCNC(=O)CNC(=O)COCCOCCNC(=O)[C@H]2CC(=O)N(C)[C@@H]2c2cccnc2)C1 [Example 78] | 5.52 nM
12 | CC(C)N(C)[C@@H]1CC[C@H](N2CC[C@H](Nc3ncnc4ccc(C(F)(F)F)cc34)C2=O)[C@H](NC(=O)[C@H]2CC[C@@H](NC(=O)CNC(=O)COCCOCCNC(=O)[C@H]3CC(=O)N(C)[C@@H]3c3cccnc3)CC2)C1 [Example 81] | 0.522 nM
13 | CC(C)N(C)[C@@H]1CC[C@H](N2CC[C@H](Nc3ncnc4ccc(C(F)(F)F)cc34)C2=O)[C@H](NC(=O)[C@H]2CC[C@@H](NC(=O)COCCOCCNC(=O)CCNC(=O)[C@H]3CC(=O)N(C)[C@@H]3c3cccnc3)CC2)C1 [Example 82] | 0.479 nM
14 | CC(C)N(C)[C@@H]1CC[C@H](N2CC[C@H](Nc3ncnc4ccc(C(F)(F)F)cc34)C2=O)[C@H](NC(=O)COCC(=O)N2CCN(C(=O)N3CCN(C(=O)COCCNC(=O)[C@H]4CC(=O)N(C)[C@@H]4c4cccnc4)CC3)CC2)C1 [Example 84] | 0.213 nM
15 | CC(C)N(C)[C@@H]1CC[C@H](N2CC[C@H](Nc3ncnc4ccc(C(F)(F)F)cc34)C2=O)[C@H](NC(=O)CCc2ccc(C3CCN(C(=O)CCCCCNC(=O)[C@H]4CC(=O)N(C)[C@@H]4c4cccnc4)CC3)cc2)C1 [Example 86, (2S,3S)-N-(6-(4-(4-(3-(((1R,2S,5R)-5-(Isopropyl(methyl)amino)-2-((S)-2-oxo-3-((6-(trifluoromethyl)quinazolin-4-yl)amino)pyrrolidin-1-yl)cyclohexyl)amino)-3-oxopropyl)phenyl)piperidin-1-yl)-6-oxohexyl)-1-methyl-5-oxo-2-(pyridin-3-yl)pyrrolidine-3-carboxamide] | 7.94 nM
16 | CC(C)N(C)[C@@H]1CC[C@H](N2CC[C@H](Nc3ncnc4ccc(C(F)(F)F)cc34)C2=O)[C@H](NC(=O)C2CCN(C3CCN(C(=O)CCCCCNC(=O)[C@H]4CC(=O)N(C)[C@@H]4c4cccnc4)CC3)CC2)C1 [Example 87] | 3.98 nM
17 | CC(C)N(C)[C@@H]1CC[C@H](N2CC[C@H](Nc3ncnc4ccc(C(F)(F)F)cc34)C2=O)[C@H](NC(=O)c2cc(OCCOCCOCCOCCOCCNC(=O)[C@H]3CC(=O)N(C)[C@@H]3c3cccnc3)ccn2)C1 [Example 88, N-((1R,2S,5R)-5-(Isopropyl(methyl)amino)-2-((S)-2-oxo-3-((6-(trifluoromethyl)quinazolin-4-yl)amino)pyrrolidin-1-yl)cyclohexyl)-4-((1-((2S,3S)-1-methyl-5-oxo-2-(pyridin-3-yl)pyrrolidin-3-yl)-1-oxo-5,8,11,14-tetraoxa-2-azahexadecan-16-yl)oxy)picolinamide] | 2.51 nM
18 | CC(C)N(C)[C@@H]1CC[C@H](N2CC[C@H](Nc3ncnc4ccc(C(F)(F)F)cc34)C2=O)[C@H](NC(=O)c2cc(OCCOCCOCCOCCNC(=O)[C@H]3CC(=O)N(C)[C@@H]3c3cccnc3)ccn2)C1 [Example 89] | 6.31 nM
19 | CC(C)N(C)[C@@H]1CC[C@H](N2CC[C@H](Nc3ncnc4ccc(C(F)(F)F)cc34)C2=O)[C@H](NC(=O)C2CCN(C3CCN(CCOCCOCCNC(=O)[C@H]4CC(=O)N(C)[C@@H]4c4cccnc4)CC3)CC2)C1 [Example 90, N-((1R,2S,5R)-5-(Isopropyl(methyl)amino)-2-((S)-2-oxo-3-((6-(trifluoromethyl)quinazolin-4-yl)amino)pyrrolidin-1-yl)cyclohexyl)-1′-(2-(2-(2-((2S,3S)-1-methyl-5-oxo-2-(pyridin-3-yl)pyrrolidine-3-carboxamido)ethoxy)ethoxy)ethyl)-[1,4′-bipiperidine]-4-carboxamide] | 2 nM
20 | CC(C)N(C)[C@@H]1CC[C@H](N2CC[C@H](Nc3ncnc4ccc(C(F)(F)F)cc34)C2=O)[C@H](NC(=O)c2ccc(OC3CCN(CCOCCOCCNC(=O)[C@H]4CC(=O)N(C)[C@@H]4c4cccnc4)CC3)cc2)C1 [Example 91] | 2 nM
21 | CC(C)N(C)[C@@H]1CC[C@H](N2CC[C@H](Nc3ncnc4ccc(C(F)(F)F)cc34)C2=O)[C@H](NC(=O)c2cnn(C3CCN(CCOCCOCCNC(=O)[C@H]4CC(=O)N(C)[C@@H]4c4cccnc4)CC3)c2)C1 [Example 92, N-((1R,2S,5R)-5-(Isopropyl(methyl)amino)-2-((S)-2-oxo-3-((6-(trifluoromethyl)quinazolin-4-yl)amino)pyrrolidin-1-yl)cyclohexyl)-1-(1-(2-(2-(2-((2S,3S)-1-methyl-5-oxo-2-(pyridin-3-yl)pyrrolidine-3-carboxamido)ethoxy)ethoxy)ethyl)piperidin-4-yl)-1H-pyrazole-4-carboxamide] | 6.31 nM
22 | CC(C)N(C)[C@@H]1CC[C@H](N2CC[C@H](Nc3ncnc4ccc(C(F)(F)F)cc34)C2=O)[C@H](NC(=O)C2CCC3(CC2)CCN(CCOCCOCCNC(=O)[C@H]2CC(=O)N(C)[C@@H]2c2cccnc2)CC3)C1 [Example 93] | 3.98 nM
23 | CC(C)N(C)[C@@H]1CC[C@H](N2CC[C@H](Nc3ncnc4ccc(C(F)(F)F)cc34)C2=O)[C@H](NC(=O)[C@H]2CC[C@@H](NC(=O)C3CCC4(CC3)CCN(C(=O)[C@H]3CC(=O)N(C)[C@@H]3c3cccnc3)CC4)CC2)C1 [Example 95, N-((1 S,4R)-4-(((1R,2S,5R)-5-(Isopropyl(methyl)amino)-2-((S)-2-oxo-3-((6-(trifluoromethyl)quinazolin-4-yl)amino)pyrrolidin-1-yl)cyclohexyl)carbamoyl)cyclohexyl)-3-((2S,3S)-1-methyl-5-oxo-2-(pyridin-3-yl)pyrrolidine-3-carbonyl)-3-azaspiro[5.5]undecane-9-carboxamide] | 6.31 nM
